Laboratory results taken from ChEMBL document CHEMBL1268824, “Synthesis and SAR studies of 1,4-benzoxazine MenB inhibitors: novel antibacterial agents against Mycobacterium tuberculosis” (Bioorg Med Chem Lett, 2010).
Converted amounts (≈) assume the structure as drawn. The source made the active and inactive calls. The calls are words filed in the database; no cut-off is given here.

What was measured:
[1] = target: T1, 1,4-dihydroxy-2-naphthoyl-CoA synthase (Mycobacterium tuberculosis) (UniProt P9WNP5); assay: Inhibition of Mycobacterium tuberculosis MenB expressed in Escherichia coli BL21 (DE3) up to 100 uM by double-reciprocal plot analysis
T1 sequence (whole entry): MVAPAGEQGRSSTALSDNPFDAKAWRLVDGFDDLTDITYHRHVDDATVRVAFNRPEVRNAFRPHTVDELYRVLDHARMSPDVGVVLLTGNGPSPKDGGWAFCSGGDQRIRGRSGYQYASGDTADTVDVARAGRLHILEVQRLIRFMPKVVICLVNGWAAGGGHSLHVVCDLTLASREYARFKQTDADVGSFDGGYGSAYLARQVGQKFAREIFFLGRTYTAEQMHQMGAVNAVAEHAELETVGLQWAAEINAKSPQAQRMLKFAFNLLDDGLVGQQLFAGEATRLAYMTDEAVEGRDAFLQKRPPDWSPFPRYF

Escherichia coli [2] = assay: Antibacterial activity against Escherichia coli M17 assessed as bacterial growth inhibition; type: functional, organism-based
Staphylococcus aureus = assay: Antibacterial activity against Staphylococcus aureus P209 assessed as bacterial growth inhibition; type: functional, organism-based
[3] = test system: Mycobacterium tuberculosis; assay: Antibacterial activity against Mycobacterium tuberculosis H37Rv after 5 to 7 days by alamar blue assay; type: functional
[4] = target: T1, 1,4-dihydroxy-2-naphthoyl-CoA synthase (Mycobacterium tuberculosis); assay: Inhibition of Mycobacterium tuberculosis MenB expressed in Escherichia coli BL21 (DE3) at 125 ug/ml by double-reciprocal plot analysis
Escherichia coli [5] = assay: Inhibition of Escherichia coli MenE expressed in Escherichia coli BL21 (DE3) at 50 uM by double-reciprocal plot analysis
Mycobacterium avium = assay: Antibacterial activity against Mycobacterium avium; type: functional
[6] = target: T2, 1,4-dihydroxy-2-naphthoyl-CoA synthase (Mycobacterium tuberculosis, UniProt P9WNP5); assay: Inhibition of Mycobacterium tuberculosis MenB expressed in Escherichia coli BL21 (DE3) by double-reciprocal plot analysis
T2 sequence (P9WNP5 whole entry): T1 sequence (whole entry)

[7] = target: T2, 1,4-dihydroxy-2-naphthoyl-CoA synthase; assay: Non-competitive inhibition of Mycobacterium tuberculosis MenB expressed in Escherichia coli BL21 (DE3) assessed as inhibition of enzyme-substrate complex formation
[8] = target: T2, 1,4-dihydroxy-2-naphthoyl-CoA synthase; assay: Non-competitive inhibition of Mycobacterium tuberculosis MenB expressed in Escherichia coli BL21 (DE3)

## O=C1Oc2cc(F)ccc2N/C1=C\C(=O)c1ccccc1Cl
[1]
  inhibition: inactive
Escherichia coli [2]
  growth inhibition (GI): Active
Staphylococcus aureus
  growth inhibition (GI): Active
[3]
  MIC: 1.56 µg/mL (≈ 4.91 µM)

## CC(C)CC(=O)/C=C1\Nc2cc(Cl)ccc2OC1=O
[4]
  inhibition: 98%
Escherichia coli [5]
  inhibition: inactive

## COC(=O)/C=C1\Nc2ccccc2NC1=O
Mycobacterium avium
  Activity: >64 µg/mL
[6]
  IC50: > 122 µM
[3]
  MIC: > 100 µg/mL

## O=C1Oc2ccc(Cl)cc2N/C1=C\C(=O)c1ccccc1Cl
[1]
  inhibition: inactive
Escherichia coli [2]
  growth inhibition (GI): Active
Staphylococcus aureus
  growth inhibition (GI): Active
[3]
  MIC: 12.5 µg/mL (≈ 37.4 µM)

## COC(=O)/C=C1\Nc2ccccc2SC1=O
Mycobacterium avium
  Activity: >64 µg/mL
[6]
  IC50: > 140 µM
[3]
  MIC: > 100 µg/mL

## O=C1Oc2ccc(F)cc2N/C1=C\C(=O)c1ccccc1Cl
[1]
  inhibition: inactive
Escherichia coli [2]
  growth inhibition (GI): Active
Staphylococcus aureus
  growth inhibition (GI): Active
[3]
  MIC: 3.13 µg/mL (≈ 9.85 µM)

## COC(=O)/C=C1\Nc2ccc(C)cc2OC1=O
[6]
  IC50: 18.2 µM
[3]
  MIC: 100 µg/mL (≈ 429 µM)

## Cc1ccc2c(c1)N/C(=C\C(=O)CC(C)C)C(=O)O2
[4]
  inhibition: 77.3%
Escherichia coli [5]
  inhibition: inactive

## COC(=O)/C=C1\Nc2ccc(Cl)cc2OC1=O
[6]
  IC50: 35.7 µM
[3]
  MIC: 0.63 µg/mL (≈ 2.48 µM)

## CC(C)(C)/C(O)=C/c1nc2ccccc2oc1=O
[4]
  inhibition: 68.4%
Escherichia coli [5]
  inhibition: inactive

## Cc1ccc2c(c1)N/C(=C\C(=O)c1ccccc1Cl)C(=O)O2
[1]
  inhibition: inactive
Escherichia coli [2]
  growth inhibition (GI): Active
Staphylococcus aureus
  growth inhibition (GI): Active
[3]
  MIC: 100 µg/mL (≈ 319 µM)

## Cc1ccc2c(c1)OC(=O)/C(=C/C(=O)c1ccccc1Cl)N2
[1]
  inhibition: inactive
Escherichia coli [2]
  growth inhibition (GI): Active
Staphylococcus aureus
  growth inhibition (GI): Active
[3]
  MIC: > 100 µg/mL

## CCS(=O)(=O)c1ccc2c(c1)N/C(=C\C(=O)C(C)(C)C)C(=O)O2
[4]
  inhibition: 60.3%
Escherichia coli [5]
  inhibition: inactive

## COC(=O)/C=C1\Nc2cc(Cl)ccc2OC1=O
[7]
  Ki: 18.5 µM
[8]
  Ki: 22.5 µM
[6]
  IC50: 46.3 µM
[3]
  MIC: 5 µg/mL (≈ 19.7 µM)

## COC(=O)/C=C1\Nc2cc([N+](=O)[O-])ccc2OC1=O
[6]
  IC50: 28.2 µM
[3]
  MIC: 50 µg/mL (≈ 189 µM)

## O=C1Oc2ccccc2N/C1=C\C(=O)c1ccccc1Cl
[1]
  inhibition: inactive
Escherichia coli [2]
  growth inhibition (GI): Active
Staphylococcus aureus
  growth inhibition (GI): Active
[3]
  MIC: 3.13 µg/mL (≈ 10.4 µM)

## COC(=O)/C=C1\Nc2ccc([N+](=O)[O-])cc2OC1=O
[6]
  IC50: 20.3 µM
[3]
  MIC: > 100 µg/mL

## COC(=O)/C=C1\Nc2c(C)cccc2OC1=O
[6]
  IC50: 24.1 µM
[3]
  MIC: 25 µg/mL (≈ 107 µM)

## COC(=O)/C=C1\Nc2cc(C)ccc2OC1=O
[6]
  IC50: 23.1 µM
[3]
  MIC: > 100 µg/mL

## COC(=O)/C=C1\Nc2ccccc2OC1=O
[7]
  Ki: 67 µM
[8]
  Ki: 9.1 µM
[6]
  IC50: 10 µM
[3]
  MIC: 0.64 µg/mL (≈ 2.92 µM)

## COC(=O)/C=C1\Nc2cc(F)ccc2OC1=O
[7]
  Ki: 10.1 µM
[8]
  Ki: 11.5 µM
[6]
  IC50: 27 µM
[3]
  MIC: 0.63 µg/mL (≈ 2.66 µM)

## CCS(=O)(=O)c1ccc2c(c1)N/C(=C\C(=O)OC)C(=O)O2
[6]
  IC50: 17.9 µM
[3]
  MIC: > 100 µg/mL

## O=C1Oc2cc(Cl)ccc2N/C1=C\C(=O)c1ccccc1Cl
[1]
  inhibition: inactive
Escherichia coli [2]
  growth inhibition (GI): Active
Staphylococcus aureus
  growth inhibition (GI): Active
[3]
  MIC: 3.13 µg/mL (≈ 9.37 µM)

## COC(=O)/C=C1\Nc2ccc(F)cc2OC1=O
[6]
  IC50: 30 µM
[3]
  MIC: 0.63 µg/mL (≈ 2.66 µM)
